Experimental data taken from patent publication US7205382B2, “Peptides, the production and use thereof for binding immunoglobulins” (Fresenius Medical Care Affina GmbH, priority 2000, dated 2007).
Bridge positions count the residues as written; N and C are the ends. Square brackets hold non-standard residues; d marks the D form. Ends that are not written are not given here. βAla = NCCC(=O)O

Assays:
Format in all cases: binding
Set-up in all cases: key: No binding of immunoglobulin for the defined peptide variant, detection negative: 0; Binding of immunoglobulin for the defined peptide variant, detection positive: +
[1] = system: immunoglobulins in human plasma; assay: Cellulose-immobilized 13-mer peptide variants incubated with human plasma, anti-human IgG-AP detection; conditions: human plasma as sample, diluted 1:10,000 in blocking buffer, 3 h room temperature
In short: (§1)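 Peptides on cellulose via a (βA)(βA) spacer were blocked in T-TBS (pH 8.0) with 5% saccharose and 4% BSA, then exposed for 3 h at room temperature to IgG-Fc (1 μg/ml), serum diluted 1:10,000, or blocking buffer alone. Bound IgG was detected with AP-anti-human IgG (1.2 μg/ml) and NBT/BCIP colour development.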

[2] = system: human IgG-Fc; assay: Cellulose-immobilized 13-mer peptide variants incubated with human IgG-Fc, anti-human IgG-AP detection; conditions: IgG-Fc 1 μg/ml in blocking buffer, 3 h room temperature
In short: as §1

[3] = system: serum albumin; assay: Cellulose-immobilized 13-mer peptide variants incubated with serum albumin (negative control), anti-human IgG-AP detection; conditions: blocking buffer without addition, 3 h room temperature
In short: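 Read-out was colorimetric NBT/BCIP staining (developing buffer pH 9.5) after alkaline phosphatase-conjugated anti-human IgG at 1.2 μg/ml. Before this, the immobilized peptides had been incubated 3 h at room temperature with 1 μg/ml IgG-Fc, 1:10,000 diluted serum, or albumin-containing blocking buffer without addition.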

Substance	Result for incubation with human plasma (immunoglobulin binding detection) [1]	Result for incubation with human IgG-Fc (immunoglobulin binding detection) [2]	Result for incubation with serum albumin (immunoglobulin binding detection) [3]
04V: cellulose-bound 13-mer variant DCAVHLGELVWCT-(βA)(βA) (disulfide 2-12 (inferred); not fully specified (N-terminus, C-terminus); printed as DCAVHLGELVWCT-(βA)(βA); also: cellulose-bound)	+	+	0
04Y: cellulose-bound 13-mer variant DCAYHLGELVWCT-(βA)(βA) (disulfide 2-12 (inferred); not fully specified (N-terminus, C-terminus); printed as DCAYHLGELVWCT-(βA)(βA); also: cellulose-bound)	+	+	0
05A: cellulose-bound 13-mer variant DCAWALGELVWCT-(βA)(βA) (disulfide 2-12 (inferred); not fully specified (N-terminus, C-terminus); printed as DCAWALGELVWCT-(βA)(βA); also: cellulose-bound)	0	0	0
05C: cellulose-bound 13-mer variant DCAWCLGELVWCT-(βA)(βA) (not fully specified (N-terminus, C-terminus, bridges); printed as DCAWCLGELVWCT-(βA)(βA); cysteine pairing not given here; also: cellulose-bound)	0	0	0
05D: cellulose-bound 13-mer variant DCAWDLGELVWCT-(βA)(βA) (disulfide 2-12 (inferred); not fully specified (N-terminus, C-terminus); printed as DCAWDLGELVWCT-(βA)(βA); also: cellulose-bound)	0	0	0
05E: cellulose-bound 13-mer variant DCAWELGELVWCT-(βA)(βA) (disulfide 2-12 (inferred); not fully specified (N-terminus, C-terminus); printed as DCAWELGELVWCT-(βA)(βA); also: cellulose-bound)	0	0	0
05F: cellulose-bound 13-mer variant DCAWFLGELVWCT-(βA)(βA) (disulfide 2-12 (inferred); not fully specified (N-terminus, C-terminus); printed as DCAWFLGELVWCT-(βA)(βA); also: cellulose-bound)	0	0	0
05G: cellulose-bound 13-mer variant DCAWGLGELVWCT-(βA)(βA) (disulfide 2-12 (inferred); not fully specified (N-terminus, C-terminus); printed as DCAWGLGELVWCT-(βA)(βA); also: cellulose-bound)	0	0	0
05I: cellulose-bound 13-mer variant DCAWILGELVWCT-(βA)(βA) (disulfide 2-12 (inferred); not fully specified (N-terminus, C-terminus); printed as DCAWILGELVWCT-(βA)(βA); also: cellulose-bound)	0	0	0
05K: cellulose-bound 13-mer variant DCAWKLGELVWCT-(βA)(βA) (disulfide 2-12 (inferred); not fully specified (N-terminus, C-terminus); printed as DCAWKLGELVWCT-(βA)(βA); also: cellulose-bound)	0	0	0
05L: cellulose-bound 13-mer variant DCAWLLGELVWCT-(βA)(βA) (disulfide 2-12 (inferred); not fully specified (N-terminus, C-terminus); printed as DCAWLLGELVWCT-(βA)(βA); also: cellulose-bound)	0	0	0
05M: cellulose-bound 13-mer variant DCAWMLGELVWCT-(βA)(βA) (disulfide 2-12 (inferred); not fully specified (N-terminus, C-terminus); printed as DCAWMLGELVWCT-(βA)(βA); also: cellulose-bound)	0	0	0
05N: cellulose-bound 13-mer variant DCAWNLGELVWCT-(βA)(βA) (disulfide 2-12 (inferred); not fully specified (N-terminus, C-terminus); printed as DCAWNLGELVWCT-(βA)(βA); also: cellulose-bound)	0	0	0
05P: cellulose-bound 13-mer variant DCAWPLGELVWCT-(βA)(βA) (disulfide 2-12 (inferred); not fully specified (N-terminus, C-terminus); printed as DCAWPLGELVWCT-(βA)(βA); also: cellulose-bound)	0	0	0
05Q: cellulose-bound 13-mer variant DCAWQLGELVWCT-(βA)(βA) (disulfide 2-12 (inferred); not fully specified (N-terminus, C-terminus); printed as DCAWQLGELVWCT-(βA)(βA); also: cellulose-bound)	0	0	0
05R: cellulose-bound 13-mer variant DCAWRLGELVWCT-(βA)(βA) (disulfide 2-12 (inferred); not fully specified (N-terminus, C-terminus); printed as DCAWRLGELVWCT-(βA)(βA); also: cellulose-bound)	0	0	0
05S: cellulose-bound 13-mer variant DCAWSLGELVWCT-(βA)(βA) (disulfide 2-12 (inferred); not fully specified (N-terminus, C-terminus); printed as DCAWSLGELVWCT-(βA)(βA); also: cellulose-bound)	0	0	0
05T: cellulose-bound 13-mer variant DCAWTLGELVWCT-(βA)(βA) (disulfide 2-12 (inferred); not fully specified (N-terminus, C-terminus); printed as DCAWTLGELVWCT-(βA)(βA); also: cellulose-bound)	0	0	0
05V: cellulose-bound 13-mer variant DCAWVLGELVWCT-(βA)(βA) (disulfide 2-12 (inferred); not fully specified (N-terminus, C-terminus); printed as DCAWVLGELVWCT-(βA)(βA); also: cellulose-bound)	0	0	0
05W: cellulose-bound 13-mer variant DCAWWLGELVWCT-(βA)(βA) (disulfide 2-12 (inferred); not fully specified (N-terminus, C-terminus); printed as DCAWWLGELVWCT-(βA)(βA); also: cellulose-bound)	0	0	0
05Y: cellulose-bound 13-mer variant DCAWYLGELVWCT-(βA)(βA) (DCAWYLGELVWCT[βAla][βAla]; disulfide 2-12 (inferred); not fully specified (N-terminus); printed as DCAWYLGELVWCT-(βA)(βA); also: cellulose-bound)	0	0	0
